Laboratory results: PubChem BioAssay (NCI)
Where “and” joins values, the source holds several entries; their conditions need not be identical. Equal values may be shown once.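 48-hour exposure; five concentrations; linearly interpolated endpoints. GI50 marks 50% less growth. Definition used: TGI = concentration required for complete inhibition of growth.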

How the values were obtained:
Assay in all cases: DTP human tumour cell line panel, 48 h
786-0 renal = test system: 786-0 renal
EKVX NSCLC = test system: EKVX NSCLC
HCT-15 colon = test system: HCT-15 colon
HL-60(TB) leukemia = test system: HL-60(TB) leukemia
IGROV1 ovarian = test system: IGROV1 ovarian
K-562 leukemia = test system: K-562 leukemia
OVCAR-3 ovarian = test system: OVCAR-3 ovarian
SN12C renal = test system: SN12C renal
T-47D breast = test system: T-47D breast
TK-10 renal = test system: TK-10 renal

## COc1ccc2c(c1)C(=O)c1c-2c(OCCN(C)C)nc2ccccc12
786-0 renal
  GI50: 4.06 µM
  TGI: 16.5 µM
EKVX NSCLC
  GI50: 2.05 µM
  TGI: 7.8 µM
HCT-15 colon
  GI50: 2.02 µM
  TGI: 11.3 µM
HL-60(TB) leukemia
  GI50: 3.19 µM
  TGI: 15.4 µM
IGROV1 ovarian
  GI50: 2.97 µM
  TGI: 14.8 µM
K-562 leukemia
  GI50: 1.6 µM
  TGI: 10.3 µM
OVCAR-3 ovarian
  GI50: 2.48 µM
  TGI: 7.01 µM
SN12C renal
  GI50: 1.69 µM
  TGI: 10.6 µM
T-47D breast
  GI50: 4.05 µM
  TGI: 18.3 µM
TK-10 renal
  GI50: 7.56 µM
  TGI: 20.8 µM

## Oc1c(-c2cc(C(F)(F)F)[nH]n2)cc(Cl)c(OCc2ccc(Cl)cc2)c1-c1ccc(Cl)c(C(F)(F)F)c1
786-0 renal
  GI50: 0.647 µM
  TGI: 2.14 µM
EKVX NSCLC
  GI50: 0.795 µM
  TGI: 5.56 µM
HCT-15 colon
  GI50: 0.153 µM
  TGI: 0.693 µM
HL-60(TB) leukemia
  GI50: 0.677 µM
  TGI: 3.12 µM
IGROV1 ovarian
  GI50: 0.965 µM
  TGI: 5.93 µM
K-562 leukemia
  GI50: 0.126 µM
  TGI: 6.81 µM
OVCAR-3 ovarian
  GI50: 0.315 µM
  TGI: 5.5 µM
SN12C renal
  GI50: 0.153 µM
  TGI: 3.31 µM
T-47D breast
  GI50: 0.147 µM
  TGI: 1.53 µM
TK-10 renal
  GI50: 0.56 µM
  TGI: 5.28 µM

## COc1ccc(Nc2ccnc(N3CCN(c4ccnc5cc(Cl)ccc45)CC3)n2)cc1
786-0 renal
  GI50: 1.4 µM
  TGI: 6.87 µM
HCT-15 colon
  GI50: 0.83 µM
  TGI: > 100 µM
HL-60(TB) leukemia
  GI50: 1.14 µM
  TGI: 7.18 µM
IGROV1 ovarian
  GI50: 0.696 µM
K-562 leukemia
  GI50: 0.444 µM
  TGI: > 20.8 µM
OVCAR-3 ovarian
  GI50: 0.729 µM
  TGI: 15.4 µM
SN12C renal
  GI50: 1.67 µM
  TGI: > 100 µM
T-47D breast
  GI50: 1.39 µM
  TGI: 6.99 µM
TK-10 renal
  GI50: 2.18 µM
  TGI: 7.95 µM

## Cc1[nH]nc(-c2ccon2)c1N=O
786-0 renal
  TGI: 39.2 µM
EKVX NSCLC
  TGI: 31.3 µM
HCT-15 colon
  TGI: 34.7 µM
HL-60(TB) leukemia
  TGI: 36.3 µM
IGROV1 ovarian
  TGI: 70.1 µM
K-562 leukemia
  TGI: 44.8 µM
OVCAR-3 ovarian
  TGI: 33.7 µM
SN12C renal
  TGI: 42 µM
T-47D breast
  TGI: 60.5 µM
TK-10 renal
  TGI: 32.9 µM

## CC(C)C[C@H](NC(=O)CCn1ccc2ccccc2c1=O)B(O)O
786-0 renal
  GI50: 4.76 µM
  TGI: > 100 µM
HCT-15 colon
  GI50: 9.57 µM
  TGI: > 100 µM
HL-60(TB) leukemia
  GI50: 2.69 µM
  TGI: 49.5 µM
IGROV1 ovarian
  GI50: 12.3 µM
  TGI: > 100 µM
K-562 leukemia
  GI50: 4.97 µM
  TGI: > 100 µM
OVCAR-3 ovarian
  GI50: 1.97 µM
  TGI: 5.66 µM
SN12C renal
  GI50: 11.2 µM
  TGI: 55.4 µM
T-47D breast
  GI50: 3.71 µM
  TGI: 29.3 µM
TK-10 renal
  GI50: 2.93 µM
  TGI: 9.8 µM

## COc1cc(/C=C/c2ccc3c(Br)cc(Br)c(O)c3n2)ccc1O
786-0 renal
  GI50: 1.69 µM
  TGI: 6.93 µM
EKVX NSCLC
  GI50: 1.42 µM
  TGI: 14.9 µM
HCT-15 colon
  GI50: 0.424 µM
  TGI: 15.3 µM
HL-60(TB) leukemia
  GI50: 0.46 µM
  TGI: 2.92 µM
IGROV1 ovarian
  GI50: 1.54 µM
  TGI: 13.6 µM
K-562 leukemia
  GI50: 0.441 µM
  TGI: 10.5 µM
OVCAR-3 ovarian
  GI50: 1.66 µM
  TGI: 9.12 µM
SN12C renal
  GI50: 2 µM
  TGI: 17.9 µM
T-47D breast
  GI50: 2.13 µM
  TGI: 14.7 µM
TK-10 renal
  GI50: 3.84 µM
  TGI: 15.5 µM

## COc1ccc(/C=C(/C)[N+](=O)[O-])cc1OC
786-0 renal
  GI50: 1.89 µM and 1.79 µM
  TGI: 3.39 µM and 3.36 µM
EKVX NSCLC
  GI50: 10.9 µM and 5.4 µM
  TGI: 28.6 µM and 19.8 µM
HCT-15 colon
  GI50: 2.08 µM and 1.02 µM
  TGI: 5.47 µM and 2.67 µM
HL-60(TB) leukemia
  GI50: 2.42 µM and 2.47 µM
  TGI: 5.76 µM and 8.93 µM
IGROV1 ovarian
  GI50: 2.79 µM and 2.26 µM
  TGI: 7.75 µM and 5.68 µM
K-562 leukemia
  GI50: 1.31 µM and 1.72 µM
  TGI: > 100 µM
OVCAR-3 ovarian
  GI50: 1.89 µM and 1.79 µM
  TGI: 3.35 µM and 3.44 µM
SN12C renal
  GI50: 2.35 µM and 2.18 µM
  TGI: 6.07 µM and 5.77 µM
T-47D breast
  GI50: 1.54 µM and 1.37 µM
  TGI: 3.29 µM and 3.23 µM
TK-10 renal
  GI50: 1.76 µM and 1.32 µM
  TGI: 3.5 µM and 2.7 µM

## O=C(CN1N=C(c2ccc(F)cc2)CCC1=O)Nc1nc2ccccc2s1
786-0 renal
  GI50: 0.235 µM
  TGI: 0.607 µM
EKVX NSCLC
  GI50: 2.82 µM
  TGI: > 100 µM
HCT-15 colon
  GI50: 41.6 µM
  TGI: > 100 µM
HL-60(TB) leukemia
  GI50: 3.68 µM
  TGI: 19 µM
IGROV1 ovarian
  GI50: 0.165 µM
  TGI: 0.361 µM
K-562 leukemia
  GI50: 5.32 µM
  TGI: > 100 µM
OVCAR-3 ovarian
  GI50: 1.99 µM
  TGI: 4.16 µM
SN12C renal
  GI50: 15.7 µM
  TGI: > 100 µM
T-47D breast
  GI50: > 100 µM
  TGI: > 100 µM
TK-10 renal
  GI50: > 100 µM
  TGI: > 100 µM

## COc1ccc2c(-c3ccnc(Nc4cccc(OC(F)(F)F)c4)n3)cnn2n1
786-0 renal
  GI50: 1.72 µM
  TGI: 5.48 µM
EKVX NSCLC
  GI50: 2.87 µM
  TGI: > 25 µM
HCT-15 colon
  GI50: 1.03 µM
  TGI: > 23 µM
HL-60(TB) leukemia
  GI50: 1.07 µM
  TGI: > 25 µM
IGROV1 ovarian
  GI50: 2.39 µM
  TGI: > 12.5 µM
K-562 leukemia
  GI50: 0.42 µM
  TGI: > 25 µM
OVCAR-3 ovarian
  GI50: 0.661 µM
  TGI: 1.68 µM
SN12C renal
  GI50: 1.75 µM
  TGI: > 18.3 µM
T-47D breast
  GI50: 1.71 µM
  TGI: 6.56 µM
TK-10 renal
  GI50: 4.05 µM
  TGI: 12.2 µM

## Cc1ccc(C2C3Cc4ccccc4C3=NN2c2ccc(S(=O)(=O)/N=c3\scc(-c4ccccc4)n3-c3ccccc3)cc2)cc1 (stereo unspecified)
786-0 renal
  GI50: 32 µM
  TGI: > 100 µM
EKVX NSCLC
  GI50: 21.5 µM
  TGI: 65.7 µM
HCT-15 colon
  GI50: 25.4 µM
  TGI: 79.2 µM
HL-60(TB) leukemia
  GI50: 14.5 µM
  TGI: 31.5 µM
IGROV1 ovarian
  GI50: 26.5 µM
  TGI: > 100 µM
K-562 leukemia
  GI50: 14.9 µM
  TGI: 32.6 µM
OVCAR-3 ovarian
  GI50: 16.6 µM
  TGI: 43.7 µM
SN12C renal
  GI50: 16.8 µM
  TGI: 31.8 µM
T-47D breast
  GI50: 35.5 µM
  TGI: > 100 µM
TK-10 renal
  GI50: 19.1 µM
  TGI: 63.6 µM

## C[n+]1c2ccccc2nc2c(N)cc(N)cc21
786-0 renal
  GI50: 5.43 µM
  TGI: > 100 µM
EKVX NSCLC
  GI50: 8.04 µM
  TGI: > 100 µM
HCT-15 colon
  GI50: 57.6 µM
  TGI: > 100 µM
HL-60(TB) leukemia
  GI50: 6.39 µM
  TGI: 35.8 µM
IGROV1 ovarian
  GI50: 14.4 µM
  TGI: 57 µM
K-562 leukemia
  GI50: 3.07 µM
  TGI: 33.2 µM
OVCAR-3 ovarian
  GI50: 3.69 µM
  TGI: 22.8 µM
SN12C renal
  GI50: 2.55 µM
  TGI: 14 µM
T-47D breast
  GI50: 3.95 µM
  TGI: 40.9 µM
TK-10 renal
  GI50: 64.9 µM
  TGI: > 100 µM

## CCc1c(C)nc2sc3c(N)ncnc3c2c1C
786-0 renal
  GI50: > 25 µM
  TGI: > 25 µM
HCT-15 colon
  GI50: > 25 µM
  TGI: > 25 µM
HL-60(TB) leukemia
  GI50: > 25 µM
  TGI: > 25 µM
IGROV1 ovarian
  GI50: > 25 µM
  TGI: > 25 µM
K-562 leukemia
  GI50: > 25 µM
  TGI: > 25 µM
OVCAR-3 ovarian
  GI50: > 25 µM
  TGI: > 25 µM
SN12C renal
  GI50: > 25 µM
  TGI: > 25 µM
T-47D breast
  GI50: > 25 µM
  TGI: > 25 µM
TK-10 renal
  GI50: > 25 µM
  TGI: > 25 µM

## C[CH2][Hg][S]c1ccccc1C(=O)O
786-0 renal
  GI50: 1.59 µM
  TGI: 2.95 µM
EKVX NSCLC
  GI50: 2.05 µM
  TGI: 5.39 µM
HCT-15 colon
  GI50: 1.07 µM
  TGI: 2.52 µM
HL-60(TB) leukemia
  GI50: 0.314 µM
  TGI: 1.18 µM
IGROV1 ovarian
  GI50: 1.37 µM
  TGI: 4.42 µM
OVCAR-3 ovarian
  GI50: 0.871 µM
  TGI: 2.09 µM
SN12C renal
  GI50: 1.31 µM
  TGI: 2.61 µM
T-47D breast
  GI50: 0.522 µM
  TGI: 2.79 µM
TK-10 renal
  GI50: 1.42 µM
  TGI: 2.73 µM
